Consider 4 molecules from US20240216359A1, “TREATMENT OF NEUROLOGICAL DISORDERS” (GMP BIOTECHNOLOGY LIMITED, priority 2021, published 2024).

Data set [1] is described as follows: Pilot double-blind crossover study in subjects with erectile dysfunction principally of psychogenic origin. The format is in vivo, human. An excerpt: The primary efficacy parameter was each subject's assessment of the quality of the erection (graded on a 4-point scale). Secondary endpoints included frequency of erection, time from dosing to erection, duration of erection, and efficacy index (EI) for subjects achieving erections. Safety was primarily assessed via adverse events but cardiovascular effects were also investigated by monitoring blood pressure, heart rates, and percent oxygen saturation, prior to and following dosing. The integrity of the nasal mucosa of both nostrils was also evaluated prior to dosing, in the event of nasal symptoms, and at the end of each treatment visit.
Subjects made a total of six visits to the site, an initial screening and qualification visit, three treatment visits in Part 1, and two treatment visits in Part 2. Eligible subjects were randomized to a treatment sequence for Part I after the initial screening visit. Approximately 2 months later, subjects were randomized to a treatment sequence for Part 2.
At each treatment visit, a single dose of study treatment was administered. Efficacy was measured by means of ED questionnaires, which were completed by each subject. Following dosing, all subjects viewed sexually explicit videotapes and magazines for approximately 60 minutes. At the end of this period, the questionnaires were completed and patients were asked to rate the quality of the erection using a 4-point scale. The primary efficacy variable was the subject's global rating of erection, measured on a scale of 1 to 4: 1=increase in size but not hard; 2=hard, but not hard enough for vaginal penetration; 3=hard enough for vaginal penetration (but not completely hard); 4=completely hard.
Safety was measured by monitoring the subjects' blood pressure, heart rate and percent oxygen saturation (by pulse oximetry) before and after dosing (approximately 90 minutes after dosing commenced). In addition, the integrity of the subject's nasal mucosa was assessed prior to, and at the end of treatment. Information on adverse events was collected throughout the period of the study.
Drugs, Doses, and Regimens: At each treatment visit, subjects received one dose of study treatment.

The conditions of data set [2]: adverse event rate, comparator; cited from earlier work.
For data set [3] the following is noted: cited from earlier work.
For data set [4] the following is noted: 25° C.; cited from earlier work.

Molecules are shown by their SMILES. Counter-ions that a name gives are not always drawn. Like-named read-outs stand apart in the source and are kept apart here.

On to `CCCc1nn(C)c2c(=O)[nH]c(-c3cc(S(=O)(=O)N4CCN(C)CC4)ccc3OCC)nc12` [Viagra], for which the “difference in effectiveness in initiating erections between treatments and placebo” value in data set [1] (apomorphine HCl 0.25, 0.50, 1.0 mg, Viagra 50 mg) is reported as “no statistically significant difference”. Moreover, the serious adverse events result in data set [1] (human, in vivo) is “no serious adverse events”. In data set [1] (single dose), the “subjects who achieved a satisfactory erection (as reported by the subject)” value is recorded as “around 30%”. The “efficacy by Global Self Assessment Scores (grade 3 or 4)” value in data set [1] (single dose, apomorphine 0.25-1.0 mg intranasal, Viagra 50 mg) came out at 67%.
With `CN1CC(=O)N2[C@H](c3ccc4c(c3)OCO4)c3[nH]c4ccccc4c3C[C@@H]2C1=O` [Cialis], in data set [2], the Dizziness is listed as 6.2%, the Dyspepsia is recorded as 7.7%, the Flushing is listed as 4.2% and the Headache is reported as 13.9%.
For the molecule `CN1CCc2cccc3c2[C@H]1Cc1ccc(O)c(O)c1-3` [Apomorphine Hydrochloride], the “volume of water in which one gram dissolves” value was “about 20 ml” in data set [3] (water at 80° C.) and 50 mL in data set [3] (water).
Regarding `O=C(O)CC(O)(CC(=O)O)C(=O)O` [Citric Acid], in data set [4], the pKa1 is reported as 3.128, the pKa2 is recorded as 4.761 and the pKa3 is 6.396.
